Structures can show the parent of a compound that is named as a salt. Where two headings read alike, the source gives them in different places.
Key:
[1] = biological target: T1, α1A (rat submaxillary gland) (Rattus norvegicus, UniProt P43140); experiment: Radioligand binding with [3H]-prazosin, α1A
T1 construct: α1A (rat submaxillary gland); from tissue; host or cells: rat submaxillary gland
T1 sequence (P43140 1-466): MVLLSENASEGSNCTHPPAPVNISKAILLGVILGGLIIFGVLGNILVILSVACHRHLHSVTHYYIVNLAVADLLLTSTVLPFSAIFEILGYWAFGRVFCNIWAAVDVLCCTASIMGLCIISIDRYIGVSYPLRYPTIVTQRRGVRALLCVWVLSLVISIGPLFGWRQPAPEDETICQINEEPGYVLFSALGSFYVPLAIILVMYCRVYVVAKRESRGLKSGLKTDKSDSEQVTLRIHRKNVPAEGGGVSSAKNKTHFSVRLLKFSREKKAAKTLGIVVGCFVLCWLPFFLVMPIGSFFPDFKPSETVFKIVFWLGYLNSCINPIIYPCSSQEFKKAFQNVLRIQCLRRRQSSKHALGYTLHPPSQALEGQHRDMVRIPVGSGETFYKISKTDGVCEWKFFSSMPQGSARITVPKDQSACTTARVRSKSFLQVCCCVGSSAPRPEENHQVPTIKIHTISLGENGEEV
Method: (§1) For purposes of discussing α1 adrenoceptor subtypes, the IUPHAR convention of using lower case letters to define molecular clones and upper case letters to indicate pharmacologically defined adrenoceptors has been followed. Compounds of formula I were evaluated in radioligand binding assays specific for α1A (rat submaxillary gland), α1b (hamster receptor expressed in mouse fibroblasts) and α1d (rat receptor expressed in mouse fibroblasts) using [^3H]-prazosin as the radioligand as described in Knepper, et al. J. Pharm.

[2] = biological target: T2, α1b (hamster receptor expressed in mouse fibroblasts) (Mesocricetus auratus, UniProt P18841); experiment: Radioligand binding with [3H]-prazosin, α1b
T2 construct: expressed in transfected cells; host or cells: mouse fibroblasts
T2 sequence (P18841 1-515): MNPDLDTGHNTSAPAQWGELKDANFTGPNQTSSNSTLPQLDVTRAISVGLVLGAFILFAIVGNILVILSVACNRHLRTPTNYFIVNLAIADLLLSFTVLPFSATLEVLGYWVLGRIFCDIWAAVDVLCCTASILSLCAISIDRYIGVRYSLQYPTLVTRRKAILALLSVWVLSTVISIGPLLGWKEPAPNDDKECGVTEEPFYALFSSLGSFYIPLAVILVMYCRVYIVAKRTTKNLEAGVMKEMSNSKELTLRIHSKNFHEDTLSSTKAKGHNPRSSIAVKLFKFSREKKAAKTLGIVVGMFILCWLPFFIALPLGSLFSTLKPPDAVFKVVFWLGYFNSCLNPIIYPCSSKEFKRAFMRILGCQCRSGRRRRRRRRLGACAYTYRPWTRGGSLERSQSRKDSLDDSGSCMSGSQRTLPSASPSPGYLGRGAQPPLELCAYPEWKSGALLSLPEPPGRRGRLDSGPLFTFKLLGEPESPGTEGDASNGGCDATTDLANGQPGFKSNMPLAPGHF
Method: as §1

[3] = biological target: T3, α1d (rat receptor expressed in mouse fibroblasts) (Rattus norvegicus, UniProt P23944); experiment: Radioligand binding with [3H]-prazosin, α1d
T3 construct: expressed in transfected cells; host or cells: mouse fibroblasts
T3 sequence (P23944 1-561): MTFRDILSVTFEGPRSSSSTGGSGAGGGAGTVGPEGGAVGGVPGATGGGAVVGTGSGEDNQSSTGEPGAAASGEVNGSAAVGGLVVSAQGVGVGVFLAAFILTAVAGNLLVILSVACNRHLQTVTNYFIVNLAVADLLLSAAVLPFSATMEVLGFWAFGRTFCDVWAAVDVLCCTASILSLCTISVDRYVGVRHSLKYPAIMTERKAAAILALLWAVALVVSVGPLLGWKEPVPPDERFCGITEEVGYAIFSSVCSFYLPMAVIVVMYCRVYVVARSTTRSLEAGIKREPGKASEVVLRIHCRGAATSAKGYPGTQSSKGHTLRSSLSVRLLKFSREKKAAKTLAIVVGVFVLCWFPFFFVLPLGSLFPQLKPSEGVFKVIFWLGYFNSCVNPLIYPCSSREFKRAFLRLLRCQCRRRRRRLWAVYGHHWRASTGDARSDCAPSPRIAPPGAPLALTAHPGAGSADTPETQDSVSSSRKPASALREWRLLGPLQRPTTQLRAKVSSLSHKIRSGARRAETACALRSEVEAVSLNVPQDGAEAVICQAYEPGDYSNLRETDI
Method: as §1

α1D (rat aorta) = biological target: T4, α1D (rat aorta) (Rattus norvegicus, UniProt P23944); experiment: Agonist contraction of smooth muscle tissue, rat aorta; format: cell-based; conditions: for EC50: read-out: Agonist Tissue Response (pD2) α1D (rat aorta) (converted)
T4 construct: α1B (rat spleen) and α1D (rat aorta) receptors; from tissue; host or cells: rat aorta strips, endothelium removed
T4 sequence (P23944 1-561): T3 sequence (P23944 1-561)

α1B (rat spleen) = biological target: T5, α1B (rat spleen) (Rattus norvegicus, UniProt P15823); experiment: Agonist contraction of smooth muscle tissue, rat spleen; format: cell-based; conditions: for EC50: read-out: Agonist Tissue Response (pD2) α1B (rat spleen) (converted)
T5 construct: α1B (rat spleen) and α1D (rat aorta) receptors; from tissue; host or cells: rat spleen
T5 sequence (P15823 1-515): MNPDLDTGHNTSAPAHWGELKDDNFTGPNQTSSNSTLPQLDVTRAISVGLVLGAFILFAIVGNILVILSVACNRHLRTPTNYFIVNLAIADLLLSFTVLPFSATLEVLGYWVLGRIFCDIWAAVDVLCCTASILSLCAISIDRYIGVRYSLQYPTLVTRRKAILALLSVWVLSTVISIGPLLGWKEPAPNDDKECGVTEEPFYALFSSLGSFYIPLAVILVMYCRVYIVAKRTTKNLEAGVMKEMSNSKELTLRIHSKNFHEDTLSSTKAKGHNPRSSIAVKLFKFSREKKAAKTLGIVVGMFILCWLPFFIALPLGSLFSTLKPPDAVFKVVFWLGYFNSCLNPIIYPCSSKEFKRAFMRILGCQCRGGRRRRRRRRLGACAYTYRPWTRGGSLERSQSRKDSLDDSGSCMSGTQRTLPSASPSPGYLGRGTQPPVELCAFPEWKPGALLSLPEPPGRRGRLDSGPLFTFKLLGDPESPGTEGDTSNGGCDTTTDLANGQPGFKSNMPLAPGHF

α1A (rabbit urethra) = biological target: T6, α1A (rabbit urethra) (Oryctolagus cuniculus, UniProt O02824); experiment: Agonist contraction of smooth muscle tissue, rabbit urethra; format: cell-based; conditions: for EC50: read-out: Agonist Tissue Response (pD2) α1A (rab ureth) (converted)
T6 construct: tested for α1A functional activity using rabbit urethra; from tissue; host or cells: rabbit urethra
T6 sequence (O02824 1-466): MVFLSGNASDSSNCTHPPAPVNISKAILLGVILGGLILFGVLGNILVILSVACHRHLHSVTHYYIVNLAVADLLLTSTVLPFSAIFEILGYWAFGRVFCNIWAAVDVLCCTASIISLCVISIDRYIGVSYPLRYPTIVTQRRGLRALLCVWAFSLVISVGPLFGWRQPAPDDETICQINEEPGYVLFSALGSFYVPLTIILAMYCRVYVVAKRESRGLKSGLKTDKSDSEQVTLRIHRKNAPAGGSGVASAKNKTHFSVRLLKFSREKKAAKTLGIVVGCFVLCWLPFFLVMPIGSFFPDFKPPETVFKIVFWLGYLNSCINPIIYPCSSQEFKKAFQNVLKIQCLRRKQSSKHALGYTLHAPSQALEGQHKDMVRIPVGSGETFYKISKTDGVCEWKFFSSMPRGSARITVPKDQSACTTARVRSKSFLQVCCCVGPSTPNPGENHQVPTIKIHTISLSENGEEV
Method: Most of the compounds were tested for α1A functional activity using rabbit urethra as follows. Female New Zealand white rabbits (2.0-3.5 Kg) were sedated with CO2 and decapitated. […] Subsequent experimental conditions were as described above for the other tissues. Agonist concentration response curves were cumulative except for the vas deferens assay in which the transient response made such measurements impractical.

[4] = rat submaxillary gland, [3H]-prazosin
[5] = hamster receptor expressed in mouse fibroblasts, [3H]-prazosin, read-out: Radioligand Binding Ki α1b (Hamster)
[6] = rat receptor expressed in mouse fibroblasts, [3H]-prazosin, read-out: Radioligand Binding Ki α1d (Rat)
[7] = Radioligand Binding Ki α1d (Rat), rat receptor expressed in mouse fibroblasts, [3H]-prazosin

| Ki [2, 5] | Ki [3, 6] | Molecule | Ki [1, 4] | Ki [2] | Ki [3, 7] | EC50 (α1A (rabbit urethra); rabbit urethra) | further results |
| --- | --- | --- | --- | --- | --- | --- | --- |
| – | – | Cn1cnc(C2CCCc3c2ccc(O)c3NS(C)(=O)=O)c1 (stereo not shown) [Example 5, N-[2-hydroxy-5-(1-methyl-1H-imidazol-4-yl)-5,6,7,8-tetrahydro-1-naphthalenyl]methanesulfonamide, hydrochloride] | – | – | – | – | EC50 (α1D (rat aorta)): 3.31 µM; Ki [1]: 0.136 µM; Ki ([2]; read-out: Radioligand Binding Ki α1b (Hamster)): 6.14 µM; EC50 (α1B (rat spleen)): 9.33 µM; Ki ([3]; read-out: Radioligand Binding Ki α1d (Rat)): 1.55 µM; EC50 (α1A (rabbit urethra)): 0.513 µM |
| – | – | CS(=O)(=O)Nc1cc(Cc2c[nH]cn2)ccc1O [Example 11, N-[2-hydroxy-5-(1H-imidazol-4-ylmethyl)phenyl]methanesulfonamide, hydrochloride] | 0.0822 µM | 1.4 µM | 0.311 µM | 0.148 µM | EC50 (α1D (rat aorta); rat aorta, endothelium removed): 0.692 µM; EC50 (α1B (rat spleen); rat spleen): 1.2 µM |
| – | – | CCS(=O)(=O)Nc1cccc(C(C)c2c[nH]cn2)c1 (stereo not shown) [Example 37, N-{3-[1-(1H-imidazol-4-yl)ethyl]phenyl}ethanesulfonamide, maleate] | 0.772 µM | 2.28 µM | 0.452 µM | 5.37 µM | – |
| – | – | CS(=O)(=O)Nc1ccc(F)c(Cc2c[nH]cn2)c1 [Example 41, N-[4-fluoro-3-(1H-imidazol-4-ylmethyl)phenyl]methanesulfonamide, maleate] | 0.752 µM | 1.63 µM | 0.348 µM | 13.5 µM | – |
| – | – | CCS(=O)(=O)Nc1cccc(C(=C2CCCCC2)c2c[nH]cn2)c1 [Example 56] | 0.229 µM | 0.0151 µM | 0.00198 µM | 16.2 µM | EC50 (α1D (rat aorta); rat aorta, endothelium removed): > 1000 µM |
| 4.4 µM | 5.3 µM | O=S(=O)(CCCCl)Nc1cccc2c1CCCC2c1cnc[nH]1 (stereo not shown) [Example 65, 3-Chloro-N-[5-(1H-imidazol-5-yl)-5,6,7,8-tetrahydro-1-naphthalenyl]-1-propanesulfonamide] | 1.16 µM | – | – | – | – |
| 1.13 µM | 0.458 µM | Cn1cnc(S(=O)(=O)Nc2cccc3c2CCCC3c2cnc[nH]2)c1 (stereo not shown) [Example 66, N-[5-(1H-imidazol-5-yl)-5,6,7,8-tetrahydro-1-naphthalenyl]-1-methyl-1H-imidazole-4-sulfonamide] | 0.366 µM | – | – | – | – |
| 1.05 µM | 2.29 µM | COc1ccc(S(=O)(=O)Nc2cccc3c2CCCC3c2cnc[nH]2)cc1 (stereo not shown) [Example 71, N-[5-(1H-imidazol-5-yl)-5,6,7,8-tetrahydro-1-naphthalenyl]-4-methoxybenzenesulfonamide] | 1.54 µM | – | – | – | – |
| 1.19 µM | 2.23 µM | O=S(=O)(Nc1cccc2c1CCCC2c1cnc[nH]1)c1cccc2cccnc12 (stereo not shown) [Example 73, N-[5-(1H-imidazol-5-yl)-5,6,7,8-tetrahydro-1-naphthalenyl]-8-quinolinesulfonamide] | 1.02 µM | – | – | 17.8 µM | – |

| Molecule | Ki [2, 5] | Ki [3, 6] | Ki [1, 4] | Ki [2] | Ki [3, 7] | EC50 (α1A (rabbit urethra); rabbit urethra) | further results |
| --- | --- | --- | --- | --- | --- | --- | --- |
| 5-Chloro-N-[5-(1H-imidazol-5-yl)-5,6,7,8-tetrahydro-1-naphthalenyl]-3-methyl-2,3-dihydro-1-benzothiophene-2-sulfonamide [Example 77] | 0.32 µM | 0.111 µM | 0.65 µM | – | – | – | – |
| N-[5,6,7,8-tetrahydro-5-(1H-imidazol-4-yl)-1-naphthalenyl]-2-methylethanesulfonamide, maleate [Example 18] | – | 2.05 µM | 1.14 µM | – | – | – | Agonist Tissue Response (pD2) α1D (rat aorta) (α1D (rat aorta); rat aorta, endothelium removed): 4.96; Agonist Tissue Response (pD2) α1B (rat spleen) (α1B (rat spleen); rat spleen): 4.85; Agonist Tissue Response (pD2) α1A (rab ureth) (α1A (rabbit urethra); rabbit urethra): 5.17 |

From patent US6503935B1, “Imidazoles and related compounds as α1A agonists” (Abbott Laboratories, priority 1998, dated 2003)
